Laboratory results: paper PMC9221371, “Flavonoid Derivatives as Potential Cholinesterase Inhibitors in Scopolamine-Induced Amnesic Mice: An In Vitro, In Vivo and Integrated Computational Approach” (Brain Sciences, 2022)
Where two headings read alike, the source gives them in different places.

Assays:
[1] = tested on: scopolamine-induced amnesic mice; test: Y-Maze Paradigm, spontaneous alternation in scopolamine-induced amnesic model; assay type: in vivo, Balb/C mice; details: for Spontaneous Alternation Performance: scopolamine 1 mg/kg i.p., n = 8
Description: (§1) For assessment of acute toxicity of the flavones (F1–F5), animals (21 in number) were divided into groups of 3 animals each. The reported protocols by Lorke were followed with slight modification to perform tests in two phases. In the first phase, one (control) group of animals were given Tween-80 (2%), and oral doses of F1–F5 were given to the remaining groups, respectively, at various doses (mg/kg body weight). […] The animals were housed in plastic cages. After two weeks, the animals were sacrificed by euthanasia with isoflurane in a humane manner for assessment of the effects on total weight and weight of the vital organs. The biochemical parameters of blood and histological studies of vital organs (kidney and liver tissue) were also assessed. […] The preliminary pharmacological activity was assessed at various dose concentrations of F1–F5 (2.5–20 mg/kg b.w.) to determine the effective dose for assessment of cognitive function using animal models.
(§2) The animals in the control (normal) and scopolamine amnesic groups were administered vehicle (Tween-80, 2%) only. Treated animals received F1–F5 suspended in Tween-80 (2%) p.o. at their respective doses for a period of 4 weeks. […] For assessing behavioral effects using the Y-Maze Paradigm and novel object discrimination (NOD) task, scopolamine (1 mg/kg, i.p.) was given to the different groups, 30 min after the respective treatments, to induce memory impairment (amnesia) in mice. All of the tests were performed between 8:00 a.m. and 6:00 p.m. to avoid sham results in the performance of the animals.
(§3) Behavioral tasks on the Y-Maze Paradigm and “NOD” tasks were conducted in the 5th week of study to determine learning and memory functions. The apparatus arena was cleaned with 70% ethanol during the inter-trial interval to prevent a confounding error due to the influence of odor [20, 21].
The Y-Maze task is a non-invasive and reliable behavioral test that was used for memory assessment of spontaneous alternation for F1–F5 based on previously reported protocols. A single session of Y-Maze was used to record the spontaneous alternation behavior of the animals to determine exploratory behavior and instant memory functioning. The apparatus was made of three arms in a “Y” shape (35 cm × 8 cm × 15 cm) with an equilateral triangular central area. In brief, each of the mice, previously naive to the maze, was placed at the terminal end of one arm. The animals were allowed to move and explore freely for 8 min through the maze. The number of arm entries was noted. One arm entry was considered when the hind paws of the animal were completely placed inside the arm, and the series of arm entries were documented. The spontaneous alternation in percent was calculated.

[2] = target: T1, brain acetylcholinesterase (Mus musculus, UniProt P21836); assay type: in vivo; parameters: unit not given here; details: brain homogenate, n = 8
T1 construct: The brain was extracted, and a homogenate (10% w/v) in 0.1 M of phosphate buffer (pH 7.4) was prepared; from tissue; host or cells: mouse brain homogenate
T1 sequence (P21836 32-614): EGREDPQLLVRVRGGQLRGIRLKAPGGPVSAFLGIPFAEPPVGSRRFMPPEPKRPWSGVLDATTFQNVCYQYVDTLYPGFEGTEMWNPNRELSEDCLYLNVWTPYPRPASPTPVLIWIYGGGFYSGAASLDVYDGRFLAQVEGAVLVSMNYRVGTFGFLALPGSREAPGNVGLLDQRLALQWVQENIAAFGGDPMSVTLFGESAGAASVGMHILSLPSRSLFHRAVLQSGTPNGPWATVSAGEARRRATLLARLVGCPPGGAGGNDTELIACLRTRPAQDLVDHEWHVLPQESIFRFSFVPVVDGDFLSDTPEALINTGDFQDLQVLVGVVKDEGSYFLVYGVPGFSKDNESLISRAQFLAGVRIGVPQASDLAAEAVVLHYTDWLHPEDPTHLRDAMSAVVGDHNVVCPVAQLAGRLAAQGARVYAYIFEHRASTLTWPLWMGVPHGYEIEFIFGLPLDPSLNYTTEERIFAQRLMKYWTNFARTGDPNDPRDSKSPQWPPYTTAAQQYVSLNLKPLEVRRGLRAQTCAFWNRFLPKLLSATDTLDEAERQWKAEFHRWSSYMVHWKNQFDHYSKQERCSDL
Experimental: as §2
(§4) The brain was extracted, and a homogenate (10% w/v) in 0.1 M of phosphate buffer (pH 7.4) was prepared by centrifugation for the assessment of brain oxidative status and estimating brain acetylcholinesterase activity. Catalase (CAT), superoxide dismutase (SOD), glutathione (GSH) and level of lipid peroxidation (malondialdehyde, MDA) were quantified as oxidative stress markers.

Balb/C mice = test: Acute toxicity study; assay type: in vivo; details: n = 3; for ALP / AST / Creatinine / Glucose / Total Cholesterol / Triglyceride: blood; for Kidney Weight / Liver Weight / Total Weight: mice
Description: Two weeks before the experiment, the animals were acclimatized to laboratory conditions.
as §1

[3] = target: T2, BuChE (equine serum lyophilized) (Equus caballus, UniProt P81908); test: biochemical; details: triplicate; read-out: BChE IC50 (converted)
T2 construct: purchased Sigma-Aldrich (Taufkirchen, Germany); host or cells: equine serum
T2 sequence (P81908 whole entry): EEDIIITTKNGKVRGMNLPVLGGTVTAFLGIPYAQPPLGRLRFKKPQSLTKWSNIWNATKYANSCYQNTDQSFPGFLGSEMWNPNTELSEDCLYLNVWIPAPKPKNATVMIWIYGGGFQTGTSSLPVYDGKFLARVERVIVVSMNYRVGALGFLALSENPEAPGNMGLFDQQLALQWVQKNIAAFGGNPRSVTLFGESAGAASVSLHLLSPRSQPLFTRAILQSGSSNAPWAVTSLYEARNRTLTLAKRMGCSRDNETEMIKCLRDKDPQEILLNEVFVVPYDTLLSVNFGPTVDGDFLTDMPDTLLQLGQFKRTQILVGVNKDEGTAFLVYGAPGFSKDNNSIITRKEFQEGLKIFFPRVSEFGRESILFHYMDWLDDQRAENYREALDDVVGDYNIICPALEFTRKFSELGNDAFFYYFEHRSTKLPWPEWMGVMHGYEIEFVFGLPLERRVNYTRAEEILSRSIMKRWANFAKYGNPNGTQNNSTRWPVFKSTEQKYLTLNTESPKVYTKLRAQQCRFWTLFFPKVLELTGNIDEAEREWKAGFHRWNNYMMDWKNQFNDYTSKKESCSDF
Experimental: (§5) Synthetic flavonoids F1–F5 previously synthesized by our group were used in the study.
(§6) For the determination of acetylcholinesterase inhibitory potentials, AChE and BuChE were used. […] To the tube were added DTNB (100 µL) and buffer (2.4 mL). The tube was incubated at 25 °C for 5 min as pre-incubation. The reaction was started by adding ATChI (40 µL), and the mixture was incubated at 25 °C for 20 min. The absorbance at 412 nm was measured spectrophotometrically in triplicate. […] The data were recorded in triplicate, and IC50 was calculated.

[4] = target: T3, AChE (electric eel type-VI-S) (Electrophorus electricus, UniProt O42275); test: biochemical; details: 25 °C, triplicate
T3 construct: purchased Sigma-Aldrich (Taufkirchen, Germany)
T3 sequence (O42275 24-633): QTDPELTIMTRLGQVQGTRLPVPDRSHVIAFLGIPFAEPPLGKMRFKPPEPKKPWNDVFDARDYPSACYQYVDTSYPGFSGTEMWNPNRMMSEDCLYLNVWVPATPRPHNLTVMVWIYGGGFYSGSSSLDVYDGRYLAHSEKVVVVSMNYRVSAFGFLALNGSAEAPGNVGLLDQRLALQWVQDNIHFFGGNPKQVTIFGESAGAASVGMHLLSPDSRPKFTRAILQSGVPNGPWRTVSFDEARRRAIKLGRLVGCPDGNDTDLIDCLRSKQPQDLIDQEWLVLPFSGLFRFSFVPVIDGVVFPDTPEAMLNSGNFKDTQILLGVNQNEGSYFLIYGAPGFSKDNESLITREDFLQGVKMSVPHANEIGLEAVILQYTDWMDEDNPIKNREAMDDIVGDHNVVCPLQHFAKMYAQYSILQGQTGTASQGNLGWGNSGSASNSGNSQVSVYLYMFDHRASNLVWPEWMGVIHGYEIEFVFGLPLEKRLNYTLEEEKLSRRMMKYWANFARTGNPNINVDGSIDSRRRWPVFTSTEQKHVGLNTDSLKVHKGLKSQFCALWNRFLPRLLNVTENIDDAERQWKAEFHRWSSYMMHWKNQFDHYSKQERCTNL
Experimental: as §5, §6

[5] = tested on: brains of scopolamine-induced amnesic mice; test: Antioxidant enzyme activities and oxidative stress markers in brain homogenate; assay type: in vivo, Balb/C mice; details: for GSH / MDA: n = 8
Experimental: as §2, §4

[6] = tested on: scopolamine-induced amnesic mice; test: Novel object discrimination (NOD) task in scopolamine-induced amnesic model; assay type: in vivo, Balb/C mice; details: scopolamine 1 mg/kg i.p., n = 8
Experimental: as §2, §3
Animals were challenged for the novel object discrimination task for F1–F5 as per previously reported protocols. After habituation and acclimatization, animals in each group had two consecutive object exploration trials (5 min each) for this test, with a break of 4 h in between two trials. In the familiarization phase (sample), the animals were challenged to explore two objects similar to each other. In the second phase (test), any of the two objects was changed by a new object. Exploration time in sec for the objects, including chewing, licking, sniffing or pointing the vibrissae of nose towards the object, was recorded. The discrimination ratio (%DI) was then determined using:(T novel object − T familiar object)/(T novel object + T familiar object) × 100(1)

[7] = 7.5 mg/kg b.w., n = 8, 7.5 mg/kg

O=c1cc(-c2ccc(Cl)cc2)oc2ccccc12 [Compound F1]
Spontaneous Alternation Performance ([1]; 7.5 mg/kg b.w. p.o. 4 weeks): 49.90 ± 1.33% | Spontaneous Alternation Performance ([1]; 15 mg/kg b.w. p.o. 4 weeks): 51.78 ± 1.45% | Spontaneous alternation performance (preliminary, selection of doses) ([1]; Table S1, dose 2.5 mg/kg b.w.): 37.02±2.11 | Spontaneous alternation performance (preliminary, selection of doses) ([1]; Table S1, dose 5 mg/kg b.w.): 38.91±1.67 | Spontaneous alternation performance (preliminary, selection of doses) ([1]; Table S1, dose 7.5 mg/kg b.w.): 49.12±1.45 | Spontaneous alternation performance (preliminary, selection of doses) ([1]; Table S1, dose 10 mg/kg b.w.): 48.66±1.98 | Spontaneous alternation performance (preliminary, selection of doses) ([1]; Table S1, dose 12.5 mg/kg b.w.): 48.98±2.01 | Spontaneous alternation performance (preliminary, selection of doses) ([1]; Table S1, dose 15 mg/kg b.w.): 51.72±1.88 | Spontaneous alternation performance (preliminary, selection of doses) ([1]; Table S1, dose 20 mg/kg b.w.): 52.03±2.03 | level of AChE ([2]; 7.5 mg/kg b.w.): 21.31 ± 0.53 | level of AChE ([2]; 15 mg/kg b.w.): 21.01 ± 0.61 | ALP (Balb/C mice; 600 mg/kg b.w. oral): 132.54 ± 2.78 U/L | AST (Balb/C mice; 600 mg/kg b.w. oral): 107.89 ± 2.01 U/L | Creatinine (Balb/C mice; 600 mg/kg b.w. oral): 0.36 ± 0.05 mg/dL | Glucose (Balb/C mice; 600 mg/kg b.w. oral): 85.51 ± 2.33 mg/dL | Total Cholesterol (Balb/C mice; 600 mg/kg b.w. oral): 103.19 ± 2.06 mg/dL | Triglyceride (Balb/C mice; 600 mg/kg b.w. oral): 95.20 ± 2.76 mg/dL | Kidney Weight (Balb/C mice; 600 mg/kg b.w. oral): 0.29 ± 0.19 g | Liver Weight (Balb/C mice; 600 mg/kg b.w. oral): 1.24 ± 0.21 g | Total Weight (Balb/C mice; 600 mg/kg b.w. oral): 21.82 ± 1.39 g | ALP (Balb/C mice; 1000 mg/kg b.w. oral): 136.33 ± 2.39 U/L | AST (Balb/C mice; 1000 mg/kg b.w. oral): 108.34 ± 2.66 U/L | Creatinine (Balb/C mice; 1000 mg/kg b.w. oral): 0.38 ± 0.06 mg/dL | Glucose (Balb/C mice; 1000 mg/kg b.w. oral): 86.98 ± 2.09 mg/dL | Total Cholesterol (Balb/C mice; 1000 mg/kg b.w. oral): 102.76 ± 1.87 mg/dL | Triglyceride (Balb/C mice; 1000 mg/kg b.w. oral): 94.78 ± 1.98 mg/dL | Kidney Weight (Balb/C mice; 1000 mg/kg b.w. oral): 0.29 ± 0.18 g | Liver Weight (Balb/C mice; 1000 mg/kg b.w. oral): 1.23 ± 0.26 g | Total Weight (Balb/C mice; 1000 mg/kg b.w. oral): 22.93 ± 1.91 g | ALP (Balb/C mice; 2000 mg/kg b.w. oral): 135.29 ± 4.17 U/L | AST (Balb/C mice; 2000 mg/kg b.w. oral): 109.73 ± 1.98 U/L | Creatinine (Balb/C mice; 2000 mg/kg b.w. oral): 0.34 ± 0.04 mg/dL | Glucose (Balb/C mice; 2000 mg/kg b.w. oral): 86.45 ± 2.27 mg/dL | Total Cholesterol (Balb/C mice; 2000 mg/kg b.w. oral): 102.05 ± 2.01 mg/dL | Triglyceride (Balb/C mice; 2000 mg/kg b.w. oral): 96.22 ± 1.70 mg/dL | Kidney Weight (Balb/C mice; 2000 mg/kg b.w. oral): 0.30 ± 0.20 g | Liver Weight (Balb/C mice; 2000 mg/kg b.w. oral): 1.23 ± 0.24 g | Total Weight (Balb/C mice; 2000 mg/kg b.w. oral): 21.79 ± 1.72 g | ALP (Balb/C mice; 3000 mg/kg b.w. oral): 136.09 ± 3.12 U/L | AST (Balb/C mice; 3000 mg/kg b.w. oral): 109.90 ± 2.09 U/L | Creatinine (Balb/C mice; 3000 mg/kg b.w. oral): 0.29 ± 0.03 mg/dL | Glucose (Balb/C mice; 3000 mg/kg b.w. oral): 85.72 ± 1.97 mg/dL | Total Cholesterol (Balb/C mice; 3000 mg/kg b.w. oral): 101.28 ± 1.98 mg/dL | Triglyceride (Balb/C mice; 3000 mg/kg b.w. oral): 97.41 ± 1.83 mg/dL | Kidney Weight (Balb/C mice; 3000 mg/kg b.w. oral): 0.31 ± 0.27 g | Liver Weight (Balb/C mice; 3000 mg/kg b.w. oral): 1.25 ± 0.29 g | Total Weight (Balb/C mice; 3000 mg/kg b.w. oral): 22.71 ± 1.79 g | IC50 [3]: 603 µM | IC50 [4]: 644 µM | GSH ([5]; 7.5 mg/kg b.w.): 34.62 ± 1.50 μg/mg of Protein | MDA ([5]; 7.5 mg/kg b.w.): 16.39 ± 1.28 nmol/mg Protein | CAT [5, 7]: 21.93 ± 1.37 U/mg of Protein | SOD [5, 7]: 8.97 ± 1.12 U/mg of Protein | GSH ([5]; 15 mg/kg b.w.): 35.70 ± 1.47 μg/mg of Protein | MDA ([5]; 15 mg/kg b.w.): 16.12 ± 1.47 nmol/mg Protein | CAT ([5]; 15 mg/kg b.w., n = 8, 15 mg/kg): 22.31 ± 1.22 U/mg of Protein | SOD ([5]; 15 mg/kg b.w., n = 8, 15 mg/kg): 9.12 ± 1.28 U/mg of Protein | discrimination index (%DI) ([6]; 7.5 mg/kg b.w. p.o. 4 weeks): 48.67 ± 1.57% | discrimination index (%DI) ([6]; 15 mg/kg b.w. p.o. 4 weeks): 51.11 ± 1.48%
